The target in the assay is T1, Recombinant human renin (Homo sapiens, UniProt P00797).
T1 construct: isolate the active form (residues 67-406); made in house; host or cells: FreeStyle 293-F cells (transient expression of pcDNA3.1(+)/hREN)
T1 sequence (P00797 67-406): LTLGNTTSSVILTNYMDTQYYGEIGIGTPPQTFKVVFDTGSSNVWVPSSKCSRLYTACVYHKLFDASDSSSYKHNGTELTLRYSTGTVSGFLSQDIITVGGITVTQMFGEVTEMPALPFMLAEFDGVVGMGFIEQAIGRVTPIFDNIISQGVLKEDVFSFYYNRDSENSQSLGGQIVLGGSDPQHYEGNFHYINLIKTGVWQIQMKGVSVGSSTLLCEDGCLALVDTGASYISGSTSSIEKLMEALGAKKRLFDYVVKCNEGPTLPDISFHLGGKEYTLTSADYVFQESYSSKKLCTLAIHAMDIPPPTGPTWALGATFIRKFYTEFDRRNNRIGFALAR
The assay can be described thus: In vitro enzymatic activity assay of renin inhibitors (fluorogenic peptide substrate). The class given is biochemical. Particulars: read-out: IC50 of Exemplified Compounds Against Renin. In a few lines:
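Enzyme: recombinant human renin, 3 nM final, 10 min compound pre-incubation at 37 °C; buffer 50 mM Hepes pH 7.4 with 0.1 mg/mL BSA or extra 2% BSA; 5% DMSO.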
Take `COCCCn1c([C@@H]2CCCN(C(=O)C[C@H](N)CNC(=O)c3ccc(C(=O)OC)cc3)C2)nc2ccccc21` [Compound 314, methyl 4-((S)-2-amino-4-((R)-3-(1-(3-methoxypropyl)-1H-benzo[d]imidazol-2-yl)piperidin-1-yl)-4-oxobutylcarbamoyl)benzoate]: the IC50 was 100 to 1000 nM.

For the compound `COCCCn1c([C@@H]2CCCN(C(=O)C[C@H](N)CNS(=O)(=O)c3cccc(OC)c3)C2)nc2ccccc21` [Compound 315, N-((S)-2-amino-4-((R)-3-(1-(3-methoxypropyl)-1H-benzo[d]imidazol-2-yl)piperidin-1-yl)-4-oxobutyl)-3-methoxybenzenesulfonamide], the IC50 is 100 to 1000 nM.

Turning to `COCCCn1c([C@@H]2CCCN(C(=O)C[C@H](N)CNS(=O)(=O)c3ccccc3)C2)nc2ccccc21` [Compound 316, N-((S)-2-amino-4-((R)-3-(1-(3-methoxypropyl)-1H-benzo[d]imidazol-2-yl)piperidin-1-yl)-4-oxobutyl)benzenesulfonamide], the IC50 fell in the range of 100 to 1000 nM.

For the compound `COCCCn1c([C@@H]2CCCN(C(=O)C[C@H](N)CNC(=O)c3ccccc3)C2)nc2ccccc21` [Compound 317, N-((S)-2-amino-4-((R)-3-(1-(3-methoxypropyl)-1H-benzo[d]imidazol-2-yl)piperidin-1-yl)-4-oxobutyl)benzamide], the IC50 was 100 to 1000 nM.

With `COCCCn1c([C@@H]2CCCN(C(=O)C[C@H](N)CNC(=O)c3cccc(F)c3)C2)nc2ccccc21` [Compound 318, N-((S)-2-amino-4-((R)-3-(1-(3-methoxypropyl)-1H-benzo[d]imidazol-2-yl)piperidin-1-yl)-4-oxobutyl)-3-fluorobenzamide], the concentration for half-maximal inhibition (IC50) lay in the range of 100 to 1000 nM.

Regarding `COCCCn1c([C@@H]2CCCN(C(=O)C[C@H](N)CNC(=O)CC3CCCCC3)C2)nc2ccccc21` [Compound 319, N-((S)-2-amino-4-((R)-3-(1-(3-methoxypropyl)-1H-benzo[d]imidazol-2-yl)piperidin-1-yl)-4-oxobutyl)-2-cyclohexylacetamide], the IC50 is 100 to 1000 nM.

Turning to `COCCCn1c([C@@H]2CCCN(C(=O)C[C@H](N)CNC(=O)c3ccccc3Cl)C2)nc2ccccc21` [Compound 320, N-((S)-2-amino-4-((R)-3-(1-(3-methoxypropyl)-1H-benzo[d]imidazol-2-yl)piperidin-1-yl)-4-oxobutyl)-2-chlorobenzamide], the half-maximal inhibitory concentration (IC50) fell in the range of 100 to 1000 nM.

`COCCCn1c([C@@H]2CCCN(C(=O)C[C@H](N)CNS(=O)(=O)c3ccc(OC)cc3)C2)nc2ccccc21` [Compound 321, N-((S)-2-amino-4-((R)-3-(1-(3-methoxypropyl)-1H-benzo[d]imidazol-2-yl)piperidin-1-yl)-4-oxobutyl)-4-methoxybenzenesulfonamide]: the IC50 fell in the range of 100 to 1000 nM.

As for `COCCCn1c([C@@H]2CCCN(C(=O)C[C@H](N)CNC(=O)NCCc3cc(OC)ccc3OC)C2)nc2ccccc21` [Compound 322, 1-((S)-2-amino-4-((R)-3-(1-(3-methoxypropyl)-1H-benzo[d]imidazol-2-yl)piperidin-1-yl)-4-oxobutyl)-3-(2,5-dimethoxyphenethyl)urea], the 50% inhibitory concentration (IC50) was 100 to 1000 nM.

Regarding `COCCCn1c([C@@H]2CCCN(C(=O)C[C@H](N)CNC(=O)NC3CCCCC3)C2)nc2ccccc21` [Compound 323, 1-((S)-2-amino-4-((R)-3-(1-(3-methoxypropyl)-1H-benzo[d]imidazol-2-yl)piperidin-1-yl)-4-oxobutyl)-3-cyclohexylurea], the concentration for half-maximal inhibition (IC50) is greater than 1000 nM.

For the compound `COCCCn1c([C@@H]2CCCN(C(=O)C[C@H](N)CNS(=O)(=O)c3ccccc3OC)C2)nc2ccccc21` [Compound 324, N-((S)-2-amino-4-((R)-3-(1-(3-methoxypropyl)-1H-benzo[d]imidazol-2-yl)piperidin-1-yl)-4-oxobutyl)-2-methoxybenzenesulfonamide], the 50% inhibitory concentration (IC50) was greater than 1000 nM.

As for `COCCCn1c([C@@H]2CCCN(C(=O)C[C@H](N)CNC(=O)c3ccco3)C2)nc2ccccc21` [Compound 325, N-((S)-2-amino-4-((R)-3-(1-(3-methoxypropyl)-1H-benzo[d]imidazol-2-yl)piperidin-1-yl)-4-oxobutyl)furan-2-carboxamide], the half-inhibitory concentration (IC50) was greater than 1000 nM.

For `COCCCn1c([C@@H]2CCCN(C(=O)C[C@H](N)CNC(=O)C3CCCCC3)C2)nc2ccccc21` [Compound 326, N-((S)-2-amino-4-((R)-3-(1-(3-methoxypropyl)-1H-benzo[d]imidazol-2-yl)piperidin-1-yl)-4-oxobutyl)cyclohexanecarboxamide], the half-maximal inhibitory concentration (IC50) is greater than 1000 nM.

As to `COCCCn1c([C@@H]2CCCN(C(=O)C[C@H](N)CNC(=O)c3ccccc3OC)C2)nc2ccccc21` [Compound 327, N-((S)-2-amino-4-((R)-3-(1-(3-methoxypropyl)-1H-benzo[d]imidazol-2-yl)piperidin-1-yl)-4-oxobutyl)-2-methoxybenzamide], the 50% inhibitory concentration (IC50) was greater than 1000 nM.

Turning to `COCCCn1c([C@@H]2CCCN(C(=O)C[C@H](N)CNC(=O)N3CCOCC3)C2)nc2ccccc21` [Compound 328, N-((S)-2-amino-4-((R)-3-(1-(3-methoxypropyl)-1H-benzo[d]imidazol-2-yl)piperidin-1-yl)-4-oxobutyl)morpholine-4-carboxamide], the 50% inhibitory concentration (IC50) was greater than 1000 nM.

Take `COCCCn1c([C@@H]2CCCN(C(=O)C[C@H](N)CNC(=O)Nc3ccccc3C(=O)OC)C2)nc2ccccc21` [Compound 329, methyl 2-(3-((S)-2-amino-4-((R)-3-(1-(3-methoxypropyl)-1H-benzo[d]imidazol-2-yl)piperidin-1-yl)-4-oxobutyl)ureido)benzoate]: the 50% inhibitory concentration (IC50) was greater than 1000 nM.

On to `CCOC(=O)c1ccccc1NC(=O)NC[C@@H](N)CC(=O)N1CCC[C@@H](c2nc3ccccc3n2CCCOC)C1` [Compound 330, ethyl 2-(3-((S)-2-amino-4-((R)-3-(1-(3-methoxypropyl)-1H-benzo[d]imidazol-2-yl)piperidin-1-yl)-4-oxobutyl)ureido)benzoate], for which the concentration for half-maximal inhibition (IC50) was greater than 1000 nM.

Consider `COCCCn1c([C@@H]2CCCN(C(=O)C[C@H](N)CNC(=O)C3CCCC3)C2)nc2ccccc21` [Compound 331, N-((S)-2-amino-4-((R)-3-(1-(3-methoxypropyl)-1H-benzo[d]imidazol-2-yl)piperidin-1-yl)-4-oxobutyl)cyclopentanecarboxamide], for which the IC50 was greater than 1000 nM.

As for `COCCCn1c([C@@H]2CCCN(C(=O)C[C@H](N)CNC(=O)NC3CCCC3)C2)nc2ccccc21` [Compound 332, 1-((S)-2-amino-4-((R)-3-(1-(3-methoxypropyl)-1H-benzo[d]imidazol-2-yl)piperidin-1-yl)-4-oxobutyl)-3-cyclopentylurea], the half-inhibitory concentration (IC50) was greater than 1000 nM.

With `COCCCn1c([C@@H]2CCCN(C(=O)C[C@H](N)CNC(=O)C(C)C)C2)nc2ccccc21` [Compound 333, N-((S)-2-amino-4-((R)-3-(1-(3-methoxypropyl)-1H-benzo[d]imidazol-2-yl)piperidin-1-yl)-4-oxobutyl)isobutyramide], the IC50 is greater than 1000 nM.

Consider `COCCCn1c([C@@H]2CCCN(C(=O)C[C@H](N)CNC(=O)N3CCCC3)C2)nc2ccccc21` [Compound 334, N-((S)-2-amino-4-((R)-3-(1-(3-methoxypropyl)-1H-benzo[d]imidazol-2-yl)piperidin-1-yl)-4-oxobutyl)pyrrolidine-1-carboxamide], for which the half-maximal inhibitory concentration (IC50) was greater than 1000 nM.

For the compound `COCCCn1c([C@@H]2CCCN(C(=O)[C@@H]3CN(S(=O)(=O)c4ccc5c(c4)OCCO5)C[C@H]3N)C2)nc2ccccc21` [Compound 337, ((3R,4S)-4-amino-1-(2,3-dihydrobenzo[b][1,4]dioxin-6-ylsulfony)pyrrolidin-3-yl)((R)-3-(1-(3-methoxypropyl)-1H-benzo[d]imidazol-2-yl)piperidin-1-yl)methanone], the IC50 was greater than 1000 nM.

For `COCCCn1c([C@@H]2CCCN(C(=O)[C@@H]3CN(S(=O)(=O)c4ccc5[nH]c(=O)[nH]c5c4)C[C@H]3N)C2)nc2ccccc21` [Compound 338], the IC50 was less than 100 nM.

As for `COCCCn1c([C@@H]2CCCN(C(=O)[C@@H]3CN(S(=O)(=O)c4c(Cl)cc(Br)cc4Cl)C[C@H]3N)C2)nc2ccccc21` [Compound 339], the half-inhibitory concentration (IC50) lay in the range of 100 to 1000 nM.

`COCCCn1c([C@@H]2CCCN(C(=O)[C@@H]3CN(S(=O)(=O)c4c(Cl)cc(Cl)cc4Cl)C[C@H]3N)C2)nc2ccccc21` [Compound 340, ((3R,4S)-4-amino-1-(2,4,6-trichlorophenylsulfonyl)pyrrolidin-3-yl)((R)-3-(1(3-methoxypropyl)-1H-benzo[d]imidazol-2-yl)piperidin-1-yl)methanone]: the IC50 fell in the range of 100 to 1000 nM.

On to `COCCCn1c([C@@H]2CCCN(C(=O)[C@@H]3CN(S(=O)(=O)c4ccc5ccccc5c4)C[C@H]3N)C2)nc2ccccc21` [Compound 341, ((3R,4S)-4-amino-1-(naphthalen-2-ylsulfonyl)pyrrolidin-3-yl)((R)-3-(1-(3-methoxypropyl)-1H-benzo[d]imidazol-2-yl)piperidin-1-yl)methanone], for which the IC50 was in the range of 100 to 1000 nM.

In the case of `COCCCn1c([C@@H]2CCCN(C(=O)[C@@H]3CN(S(=O)(=O)c4ccc(Br)cc4Cl)C[C@H]3N)C2)nc2ccccc21` [Compound 342, ((3R,4S)-4-amino-1-(4-bromo-2-chlorophenylsulfonyl)pyrrolidin-3-yl)((R)-3-(1-(3-methoxypropyl)-1H-benzo[d]imidazol-2-yl)piperidin-1-yl)methanone], the 50% inhibitory concentration (IC50) fell in the range of 100 to 1000 nM.

Broadly, the IC50 is the concentration that inhibits the measured activity by half.

(Values after patent publication US8138168B1 (Takeda Pharmaceutical Company Limited, priority 2007, dated 2012).)
